# Test results: paper PMC4769034 (Journal of medicinal chemistry, 2015)
# Entries after “also recorded” stand apart in the source; their conditions may differ.
# Target: T1, EPAC1 (Homo sapiens, UniProt O95398)
# T1 sequence (O95398 1-881 isoform O95398-3): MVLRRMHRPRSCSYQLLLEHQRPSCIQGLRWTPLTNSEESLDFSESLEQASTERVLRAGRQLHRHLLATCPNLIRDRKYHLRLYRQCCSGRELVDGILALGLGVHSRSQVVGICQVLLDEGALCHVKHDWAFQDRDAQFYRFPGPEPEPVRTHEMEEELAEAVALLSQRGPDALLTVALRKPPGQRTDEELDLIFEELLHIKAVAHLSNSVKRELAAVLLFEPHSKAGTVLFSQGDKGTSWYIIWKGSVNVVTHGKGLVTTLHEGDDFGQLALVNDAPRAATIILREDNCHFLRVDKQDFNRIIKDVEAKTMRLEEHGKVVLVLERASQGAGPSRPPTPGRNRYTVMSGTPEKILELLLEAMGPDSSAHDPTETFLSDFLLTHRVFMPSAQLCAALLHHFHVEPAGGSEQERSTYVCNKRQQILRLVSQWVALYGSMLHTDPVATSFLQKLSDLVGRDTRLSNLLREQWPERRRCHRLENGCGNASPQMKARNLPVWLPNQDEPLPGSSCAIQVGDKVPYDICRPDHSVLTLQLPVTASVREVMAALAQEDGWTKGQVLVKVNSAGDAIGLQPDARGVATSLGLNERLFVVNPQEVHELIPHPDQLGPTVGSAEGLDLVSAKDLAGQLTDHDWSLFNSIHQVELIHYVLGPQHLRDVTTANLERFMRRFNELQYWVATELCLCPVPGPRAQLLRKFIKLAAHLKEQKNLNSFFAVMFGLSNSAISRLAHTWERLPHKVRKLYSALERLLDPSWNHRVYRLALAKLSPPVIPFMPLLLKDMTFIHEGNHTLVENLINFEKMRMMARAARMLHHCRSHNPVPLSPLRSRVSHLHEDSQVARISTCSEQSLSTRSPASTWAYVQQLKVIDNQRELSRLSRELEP
# Assay: In vitro EPAC1 GEF activity assay
# Assay type: biochemical
# Details: not given
row,Structure (SMILES),IC50 [µM]
1,"CC(C)(C)c1cc(C(=O)/C(C#N)=N/Nc2cc(Cl)cc(Cl)c2)no1 [Compound 22, 2-(5-tert-Butylisoxazol-3-yl)-N′-(3,5-dichlorophenyl)-2-oxoacetohydrazonoyl Cyanide]",< 5

# Tested on: not listed separately
# Assay: Solubility in water by HPLC analysis
# Details: water
row,Structure (SMILES),solubility at 24 h [µg/mL]
1,"CC(C)(C)c1cc(C(=O)/C(C#N)=N/Nc2cc(Cl)c(Cl)c(Cl)c2)no1 [Compound 35, 2-(5-tert-Butylisoxazol-3-yl)-2-oxo-N′-(3,4,5-trichlorophenyl)acetohydrazonoyl Cyanide]",12.7 ± 1
2,"CC(C)(C)c1cc(C(=O)/C(C#N)=N/Nc2ccc(F)c(Cl)c2)no1 [Compound 31, 2-(5-tert-Butylisoxazol-3-yl)-N′-(3-chloro-4-fluorophenyl)-2-oxoacetohydrazonoyl Cyanide]",82.6 ± 3.6
3,"CC(C)(C)c1cc(C(=O)/C(C#N)=N/Nc2cc(F)c(F)c(F)c2)no1 [Compound 36, 2-(5-tert-Butylisoxazol-3-yl)-2-oxo-N′-(3,4,5-trifluorophenyl)acetohydrazonoyl Cyanide]",75.7 ± 7.1
4,"N#C/C(=N\Nc1cc(Cl)c(Cl)c(Cl)c1)C(=O)c1cc(C2CCCCC2)on1 [Compound 47, 2-(5-Cyclohexylisoxazol-3-yl)-2-oxo-N′-(3,4,5-trichlorophenyl)acetohydrazonoyl Cyanide]",10.1 ± 0.79

# Target: T2, EPAC2 (Mus musculus, UniProt Q9EQZ6)
# T2 sequence (Q9EQZ6 1-993 isoform Q9EQZ6-3): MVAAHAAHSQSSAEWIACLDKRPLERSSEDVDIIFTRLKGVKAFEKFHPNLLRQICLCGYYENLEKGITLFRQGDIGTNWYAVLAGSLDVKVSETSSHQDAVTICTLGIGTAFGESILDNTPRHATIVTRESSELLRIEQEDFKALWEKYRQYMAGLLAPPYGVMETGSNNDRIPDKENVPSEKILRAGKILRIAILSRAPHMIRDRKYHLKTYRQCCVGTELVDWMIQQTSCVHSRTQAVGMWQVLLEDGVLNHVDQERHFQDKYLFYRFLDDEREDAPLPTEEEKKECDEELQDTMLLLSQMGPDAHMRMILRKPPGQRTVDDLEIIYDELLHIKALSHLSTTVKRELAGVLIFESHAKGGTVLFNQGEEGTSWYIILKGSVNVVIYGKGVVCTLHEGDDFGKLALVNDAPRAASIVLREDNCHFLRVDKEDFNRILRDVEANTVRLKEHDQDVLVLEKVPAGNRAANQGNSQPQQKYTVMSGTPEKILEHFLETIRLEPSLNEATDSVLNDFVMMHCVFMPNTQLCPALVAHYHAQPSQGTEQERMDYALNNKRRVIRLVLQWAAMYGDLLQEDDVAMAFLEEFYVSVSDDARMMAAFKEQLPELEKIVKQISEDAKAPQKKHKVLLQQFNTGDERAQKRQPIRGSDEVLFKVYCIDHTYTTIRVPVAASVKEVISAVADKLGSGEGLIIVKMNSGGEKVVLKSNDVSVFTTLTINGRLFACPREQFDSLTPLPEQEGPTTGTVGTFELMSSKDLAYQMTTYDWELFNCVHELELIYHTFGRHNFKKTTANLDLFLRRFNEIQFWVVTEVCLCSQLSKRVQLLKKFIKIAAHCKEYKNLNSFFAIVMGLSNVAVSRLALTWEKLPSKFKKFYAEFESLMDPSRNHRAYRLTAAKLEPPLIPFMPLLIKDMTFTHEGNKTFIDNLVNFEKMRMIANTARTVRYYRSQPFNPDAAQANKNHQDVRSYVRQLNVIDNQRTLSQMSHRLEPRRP
# Assay: 8-NBD-cAMP competition assay
# Details: 8-NBD-cAMP competition
row,Structure (SMILES),EPAC2 binding activity in words
1,"CC(C)(C)c1cc(NC(=O)Nc2cccc(Cl)c2)no1 [Compound 54, 1-(5-tert-Butylisoxazol-3-yl)-3-(3-chlorophenyl)urea]",entire loss of potency; also recorded: no significant activity
2,"N#C/C(=N\Nc1cc(Cl)c(Cl)c(Cl)c1)C(=O)c1cc(-c2ccccc2)on1 [Compound 48, N′-(3,4,5-Trichlorophenyl)-2-oxo-2-(5-phenylisoxazol-3-yl)-acetohydrazonoyl Cyanide]",totally inactive
3,"COc1cccc(N/N=C(\C#N)C(=O)c2cc(C(C)(C)C)on2)c1 [Compound 18, 2-(5-tert-Butylisoxazol-3-yl)-N′-(3-methoxyphenyl)-2-oxoacetohydrazonoyl Cyanide]",significant loss of activity
4,"Cc1cc(NC(=O)C(C#N)=NNc2cccc(Cl)c2)no1 [Compound 52, 2-[(3-Chlorophenyl)-hydrazono]-2-cyano-N-(5-methyl-isoxazol-3-yl)acetamide]",completely inactive
5,"CC(C)(C)c1cc(-c2n[nH]c(N)c2/N=N/c2cccc(Cl)c2)no1 [Compound 57, 3-(5-tert-Butylisoxazol-3-yl)-4-((3-chlorophenyl)diazenyl)-1H-pyrazol-5-amine]",entire loss of potency; also recorded: no significant activity
6,"CC(C)(C)c1cc(NC(=O)c2cccc(Cl)c2)no1 [Compound 53, N-(5-(tert-Butyl)isoxazol-3-yl)-3-chlorobenzamide]",entire loss of potency; also recorded: no significant activity
7,"N#C/C(=N\Nc1cccc(Cl)c1)C(=O)c1cc(-c2ccccc2)on1 [Compound 41, N′-(3-Chlorophenyl)-2-oxo-2-(5-phenylisoxazol-3-yl)-acetohydrazonoyl Cyanide]",totally inactive
8,"CC(=O)c1cccc(N/N=C(\C#N)C(=O)c2cc(C(C)(C)C)on2)c1 [Compound 17, N′-(3-Acetylphenyl)-2-(5-tert-butylisoxazol-3-yl)-2-oxoacetohydrazonoyl Cyanide]",dramatic loss of activity
9,"CC(C)(C)c1cc(C(=O)N/N=C/c2cccc(Cl)c2)no1 [Compound 56, (E)-5-(tert-Butyl)-N′-(3-chlorobenzylidene)isoxazole-3-carbohydrazide]",entire loss of potency; also recorded: no significant activity
10,"CC(C)(C)c1cc(NC(=O)C(C#N)=NNc2cccc(Cl)c2)no1 [Compound 51, N-(5-tert-Butyl-isoxazol-3-yl)-2-[(3-chlorophenyl)-hydrazono]-2-cyanoacetamide]",completely inactive
11,"CC(C)(C)c1cc(C(=O)/C(C#N)=N/Nc2cccc(CO)c2)no1 [Compound 19, 2-(5-tert-Butylisoxazol-3-yl)-N′-(3-(hydroxymethyl)phenyl)-2-oxoacetohydrazonoyl Cyanide]",significant loss of activity
12,"CC(C)(C)c1cc(C(=O)Nc2cccc(Cl)c2)no1 [Compound 55, 5-tert-Butyl-N-(3-chlorophenyl)isoxazole-3-carboxamide]",entire loss of potency; also recorded: no significant activity

# Same assay, conditions: vs compound 1
Structure (SMILES),fold loss of EPAC2 binding affinity / inhibitory activity in comparison with 1 [fold],fold more potent than parent compound 1
"CC(C)(C)c1cc(C(=O)/C(C#N)=N/Nc2ccccc2)no1 [Compound 8, 2-(5-tert-Butylisoxazol-3-yl)-N′-phenyl-2-oxoacetohydrazonoyl Cyanide]",~7,
"CC(C)(C)c1cc(C(=O)/C(C#N)=N/Nc2cc(Cl)cc(Cl)c2)no1 [Compound 22, 2-(5-tert-Butylisoxazol-3-yl)-N′-(3,5-dichlorophenyl)-2-oxoacetohydrazonoyl Cyanide]",,about 5 fold
"CC(C)(C)c1cc(C(=O)/C(C#N)=N/Nc2ccc(Cl)cc2)no1 [Compound 10, 2-(5-tert-Butylisoxazol-3-yl)-N′-(4-chlorophenyl)-2-oxoacetohydrazonoyl Cyanide]",3,
"CC(C)(C)c1cc(C(=O)/C(C#N)=N/Nc2ccc(Cl)c(Cl)c2)no1 [Compound 23, 2-(5-tert-Butylisoxazol-3-yl)-N′-(3,4-dichlorophenyl)-2-oxoacetohydrazonoyl Cyanide]",,~3 fold
"CC(C)(C)c1cc(C(=O)/C(C#N)=N/Nc2ccccc2Cl)no1 [Compound 9, 2-(5-tert-Butylisoxazol-3-yl)-N′-(2-chlorophenyl)-2-oxoacetohydrazonoyl Cyanide]",3,

# Same assay, conditions: vs compound 8
row,Structure (SMILES),fold increase in potency compared to nonsubstituted analogue 8
1,"CC(C)(C)c1cc(C(=O)/C(C#N)=N/Nc2cccc(C(F)(F)F)c2)no1 [Compound 13, 2-(5-tert-Butylisoxazol-3-yl)-N′-(3-trifluoromethylphenyl)-2-oxoacetohydrazonoyl Cyanide]",approximately 5 fold
2,"Cc1cccc(N/N=C(\C#N)C(=O)c2cc(C(C)(C)C)on2)c1 [Compound 20, 2-(5-tert-Butylisoxazol-3-yl)-2-oxo-N′-m-tolylacetohydrazonoyl Cyanide]",about 2 fold
3,"CC(C)(C)c1cc(C(=O)/C(C#N)=N/Nc2cccc(F)c2)no1 [Compound 12, 2-(5-tert-Butylisoxazol-3-yl)-N′-(3-fluorophenyl)-2-oxoacetohydrazonoyl Cyanide]",3–4 fold
4,"CC(C)(C)c1cc(C(=O)/C(C#N)=N/Nc2cccc(Br)c2)no1 [Compound 11, 2-(5-tert-Butylisoxazol-3-yl)-N′-(3-bromophenyl)-2-oxoacetohydrazonoyl Cyanide]",3–4 fold
5,"CC(C)(C)c1cc(C(=O)/C(C#N)=N/Nc2cccc([N+](=O)[O-])c2)no1 [Compound 14, 2-(5-tert-Butylisoxazol-3-yl)-N′-(3-nitrophenyl)-2-oxoacetohydrazonoyl Cyanide]",about 2 fold
